Measured values: patent US20210261964A1, “LIPID PARTICLE CONTAINING A-TYPE CpG OLIGODEOXYNUCLEOTIDE” (THE RESEARCH FOUNDATION FOR MICROBIAL DISEASES OF OSAKA …, priority 2018, published 2021)

Columns and labels:
[1] = system: Bone marrow cells from WT, TLR7KO, and TLR9KO mice; test: TLR9 dependency: IL-6 production in bone marrow cells, ELISA; assay type: cell-based, mouse; settings: R848 1 ug/mL, D35 10 uM=63.4 ug/mL, nanoparticles 1 μg/mL in terms of D35, 24 hours; for IL-6 production in TLR7KO: TLR7KO bone marrow cells; for IL-6 production in TLR9KO: TLR9KO bone marrow cells
Excerpt: (§1) The content of each lipid per 100 mass % of lipids constituting the lipid particles is as follows: DOTAP: 50 mass %, DPPC: 19.5 mass %, cholesterol: 30 mass %, and DSPE-PEG (2 k (PEG chain length))-OMe: 0.5 mass % or 3.0 mass %. The ratio (N/P) of the number of nitrogen atoms (N) in the lipids constituting the lipid particles to the number of phosphorus atoms (D35) (P) in the nucleic acid was set to 3. A D35-containing aqueous solution and a lipid-containing ethanol solution were mixed using the NanoAssemblr (produced by Precision NanoSystems) to obtain lipid nanoparticles, which were then dialyzed against a 5% glucose aqueous solution. In this Test Example and the following Test Examples, the D35-containing lipid nanoparticles obtained here were used.
(§2) Bone marrow cells were prepared from each of WT, TLR7KO, and TLR9KO mice, and stimulated with R848 (TLR7/8 agonist; medium final concentration: 1 ug/mL), D35 (TLR9 agonist; medium final concentration: 10 uM=63.4 ug/mL), and D35-containing lipid nanoparticles (medium final concentration in terms of D35: 1 μg/mL), followed by culturing for 24 hours. Then, the amounts of IFN-I and IL-6 in the culture supernatant were quantified by a biological activity measurement method using murine type I IFNs sensor cells (B16-Blue IFN-α/a cells) and by the usual ELISA method, respectively.

[2] = system: Bone marrow cells from WT, TLR7KO, and TLR9KO mice; test: TLR9 dependency: IFN-I production in bone marrow cells, B16-Blue sensor cell bioassay; assay type: cell-based, mouse; settings: R848 1 ug/mL; 24 hours
Excerpt: as §1, §2

[3] = system: MC38 mouse colorectal cancer-derived tumor; test: MC38 mouse colorectal cancer-derived tumor model, tumor size; assay type: in vivo; settings: Test Example 6, FIG. 6: intratumoral, days 9, 11, 13, 15, 17; 4.5 ug/shot D35; effect on days 17 and 21
Experimental: On days 9, 11, 13, 15, and 17 after subcutaneous transplantation of MC38 (1×10^6 cells), a pharmaceutical agent (D35 or D35-containing lipid nanoparticles (DSPE-PEG-OMe content: 0.5 mass %)) was intratumorally administered 5 times in total. Then, the tumor size was measured. The amount of D35 nucleic acid administered at one time was adjusted to 4.5 ug/shot.
On days 9, 11, 13, 15, and 17 after subcutaneous transplantation of MC38 (1×10^6 cells), D35-containing lipid nanoparticles (DSPE-PEG-OMe content: 0.5 mass %) were intratumorally administered 5 times in total. Then, the tumor size was measured. Further, in order to deplete CD8T cells, anti-CD8a antibody (100 ug/shot) or control antibody (100 ug/shot) was intraperitoneally administered on days 6 and 13 after subcutaneous transplantation. The amount of D35 nucleic acid administered at one time was adjusted to 4.5 ug/shot.
On days 9, 11, 13, 15, and 17 after subcutaneous transplantation of MC38 (1×10^6 cells), a pharmaceutical agent (D35 or D35-containing lipid nanoparticles (DSPE-PEG-OMe content: 0.5 mass %)) was administered intravenously 5 times in total. Then, the tumor size was measured. […]
On days 9, 11, 13, 15, and 17 after subcutaneous transplantation of MC38 (1×10^6 cells), D35-containing lipid nanoparticles (DSPE-PEG-OMe content: 0.5 mass %) were administered intravenously 5 times in total. Then, the tumor size was measured. […]

Compound: CCOCc1nc2c(N)nc3ccccc3c2n1CC(C)(C)O [R848]
- IL-6 production in TLR7KO [1]: disappeared
- IL-6 production in TLR9KO [1]: did not disappear
- IFN-I production [2]: very weak

Compound: G_G_TGCATCGATGCAGGGG_G_G (DNA GGTGCATCGATGCAGGGGGG; DNA, linkages s2 o15 s2 (s phosphorothioate, o phosphodiester), methylation of C not given here; formulated in lipid nanoparticles) [D35, A-type CpG oligodeoxynucleotide, TLR9 agonist, not complexed with lipids]
- IL-6 production in TLR7KO [1]: did not disappear
- IL-6 production in TLR9KO [1]: disappeared almost completely
- tumor size [3]: No effect was observed
